Measured values from patent US20250319095A1, “USE OF BENZO[…] INCREASE SENSITIVITY TO […] A CHRONIC SSRI REGIMEN” (Compass Pathfinder Limited, priority 2020, published 2025).
In brackets after ≈: the same amount, converted by molar mass.

What was measured:
Mouse [1] = assay: Head twitch response to psilocybin after acute diazepam pretreatment; format: in vivo
Procedure: (§1) Animals were dosed as detailed by Table 10 below and were placed in a clean cage. The number of head twitches and wet dog shakes were then counted by a scorer for 30 minutes after dosing. The timings of head twitches and wet dog shakes were recorded by a computer program. The experiment was carried out over three days. Scorers were blinded to treatment group.
(§2) Number of head twitches over each 5-minute period and each 15-minute period and the total for 0-30 minutes were square-root transformed and analyzed by three way ANOVA with treatment, day, and scorer as factors. Ethovision data was analyzed by robust regression using M estimation, Huber weighting, using the default parameter C=1.345. The model used treatment, day, and scorer as factors.
(§3) P<0.05 was the level accepted for statistical difference. The chance of a false positive is 5% for each dose for each time. All tests were carried out as two-sided tests.

Mouse [2] = assay: Ethovision activity to psilocybin after acute diazepam pretreatment; format: in vivo
Procedure: as §1
Ethovision data was organized into 5-minute and 15-minute time periods and 0-30 minutes for each animal. Ethovision scores were log transformed, however Shapiro-Wilk tests were significant for many of the 5-minute and 15-minute time windows. Therefore, robust regression was used to analyze the Ethovision data.
as §2, §3

male C57BL/6J mice = assay: Psilocybin head twitch response with chronic diazepam pre-treatment; format: in vivo
Procedure: Sixty-two (60 plus 2 spares;) male C57BL/6J mice (20-25 g upon arrival) were purchased from Charles River UK. Animals were group housed (in 3 s and a pair) in polypropylene cages. Mice were maintained on a normal phase 12 h light-dark cycle (lights on: 07:00-19:00 h) with free access to standard rodent maintenance diet (standard pelleted diet Envigo 2018) and filtered tap water. The holding room was maintained at a temperature of 21±4° C. and relative humidity was 55±15% with prolonged periods below 40% RH or above 70% RH avoided as detailed in the UK Code of Practice. As a refinement, each cage contained sawdust, sizzle nest, a red house, Perspex tunnel, plastic chew stick and a nestlet so that the mice can make nests and facilitate warmth. Mice were weighed upon arrival and provided with wet mash overnight. The following morning, mice were weighed, and the mash removed.
Mice were weighed and allocated into 6 treatment groups by a statistician (as per Table 20 below). […] For groups A-D animals were placed individually in clean cages with a light dusting of sawdust immediately following psilocybin administration (0.3 mg/kg, s.c) for head twitch response assessment. Head twitches were counted by a trained observer over a 30 minute period.
Statistical significance was tested using two-way analysis of variance with treatment and observer as cofactors (Table 21 below).

[3] = Solubility of psilocybin in water
[4] = 0 to 5 mins, Psilocybin 0.3 mg/kg sc 1 hr post Diazepam 4 mg/kg ip or Saline ip
[5] = 0 to 5 mins, Psilocybin 1 mg/kg sc 1 hr post Diazepam 4 mg/kg ip or Saline ip
[6] = 0 to 5 mins, Psilocybin 3 mg/kg sc 1 hr post Diazepam 4 mg/kg ip or Saline ip
[7] = 0 to 15 mins, Psilocybin 0.3 mg/kg sc 1 hr post Diazepam 4 mg/kg ip or Saline ip
[8] = 0 to 15 mins, Psilocybin 1 mg/kg sc 1 hr post Diazepam 4 mg/kg ip or Saline ip
[9] = 0 to 15 mins, Psilocybin 3 mg/kg sc 1 hr post Diazepam 4 mg/kg ip or Saline ip
[10] = 0 to 30 mins (total), Psilocybin 0.3 mg/kg sc 1 hr post Diazepam 4 mg/kg ip or Saline ip
[11] = 0 to 30 mins (total), Psilocybin 1 mg/kg sc 1 hr post Diazepam 4 mg/kg ip or Saline ip
[12] = 0 to 30 mins (total), Psilocybin 3 mg/kg sc 1 hr post Diazepam 4 mg/kg ip or Saline ip
[13] = 5 to 10 mins, Psilocybin 0.3 mg/kg sc 1 hr post Diazepam 4 mg/kg ip or Saline ip
[14] = 5 to 10 mins, Psilocybin 1 mg/kg sc 1 hr post Diazepam 4 mg/kg ip or Saline ip
[15] = 5 to 10 mins, Psilocybin 3 mg/kg sc 1 hr post Diazepam 4 mg/kg ip or Saline ip
[16] = 10 to 15 mins, Psilocybin 0.3 mg/kg sc 1 hr post Diazepam 4 mg/kg ip or Saline ip
[17] = 10 to 15 mins, Psilocybin 1 mg/kg sc 1 hr post Diazepam 4 mg/kg ip or Saline ip
[18] = 10 to 15 mins, Psilocybin 3 mg/kg sc 1 hr post Diazepam 4 mg/kg ip or Saline ip
[19] = 15 to 20 mins, Psilocybin 0.3 mg/kg sc 1 hr post Diazepam 4 mg/kg ip or Saline ip
[20] = 15 to 20 mins, Psilocybin 1 mg/kg sc 1 hr post Diazepam 4 mg/kg ip or Saline ip
[21] = 15 to 20 mins, Psilocybin 3 mg/kg sc 1 hr post Diazepam 4 mg/kg ip or Saline ip
[22] = 15 to 30 mins, Psilocybin 0.3 mg/kg sc 1 hr post Diazepam 4 mg/kg ip or Saline ip
[23] = 15 to 30 mins, Psilocybin 1 mg/kg sc 1 hr post Diazepam 4 mg/kg ip or Saline ip
[24] = 15 to 30 mins, Psilocybin 3 mg/kg sc 1 hr post Diazepam 4 mg/kg ip or Saline ip
[25] = 20 to 25 mins, Psilocybin 0.3 mg/kg sc 1 hr post Diazepam 4 mg/kg ip or Saline ip
[26] = 20 to 25 mins, Psilocybin 1 mg/kg sc 1 hr post Diazepam 4 mg/kg ip or Saline ip
[27] = 20 to 25 mins, Psilocybin 3 mg/kg sc 1 hr post Diazepam 4 mg/kg ip or Saline ip
[28] = 25 to 30 mins, Psilocybin 0.3 mg/kg sc 1 hr post Diazepam 4 mg/kg ip or Saline ip
[29] = 25 to 30 mins, Psilocybin 1 mg/kg sc 1 hr post Diazepam 4 mg/kg ip or Saline ip
[30] = 25 to 30 mins, Psilocybin 3 mg/kg sc 1 hr post Diazepam 4 mg/kg ip or Saline ip

CN(C)CCc1c[nH]c2cccc(OP(=O)(O)O)c12 [Psilocybin, psilocybin]
Head twitches Mean (Mouse [1]; [4]): 1.84 | Head twitches Mean (Mouse [1]; [5]): 2.42 | Head twitches Mean (Mouse [1]; [6]): 5.34 | Head twitches Mean (Mouse [1]; [7]): 5.57 | Head twitches Mean (Mouse [1]; [8]): 6.32 | Head twitches Mean (Mouse [1]; [9]): 12.4 | Head twitches Mean (Mouse [1]; [10]): 8.38 | Head twitches Mean (Mouse [1]; [11]): 8.98 | Head twitches Mean (Mouse [1]; [12]): 15.66 | Head twitches Mean (Mouse [1]; [13]): 1.64 | Head twitches Mean (Mouse [1]; [14]): 1.39 | Head twitches Mean (Mouse [1]; [15]): 4.67 | Head twitches Mean (Mouse [1]; [16]): 1.36 | Head twitches Mean (Mouse [1]; [17]): 1.44 | Head twitches Mean (Mouse [1]; [18]): 2.07 | Head twitches Mean (Mouse [1]; [19]): 0.93 | Head twitches Mean (Mouse [1]; [20]): 1.35 | Head twitches Mean (Mouse [1]; [21]): 1.07 | Head twitches Mean (Mouse [1]; [22]): 2.57 | Head twitches Mean (Mouse [1]; [23]): 2.39 | Head twitches Mean (Mouse [1]; [24]): 2.5 | Head twitches Mean (Mouse [1]; [25]): 0.39 | Head twitches Mean (Mouse [1]; [26]): 0.43 | Head twitches Mean (Mouse [1]; [27]): 0.66 | Head twitches Mean (Mouse [1]; [28]): 0.59 | Head twitches Mean (Mouse [1]; [29]): 0.15 | Head twitches Mean (Mouse [1]; [30]): 0.34 | Ethovision data Mean (Mouse [2]; [4]): 801.48 | Ethovision data Mean (Mouse [2]; [5]): 826.56 | Ethovision data Mean (Mouse [2]; [6]): 785.38 | Ethovision data Mean (Mouse [2]; [7]): 2149.79 | Ethovision data Mean (Mouse [2]; [8]): 2025.10 | Ethovision data Mean (Mouse [2]; [9]): 1667.64 | Ethovision data Mean (Mouse [2]; [10]): 3782.48 | Ethovision data Mean (Mouse [2]; [11]): 3368.87 | Ethovision data Mean (Mouse [2]; [12]): 2403.79 | Ethovision data Mean (Mouse [2]; [13]): 704.55 | Ethovision data Mean (Mouse [2]; [14]): 665.97 | Ethovision data Mean (Mouse [2]; [15]): 516.00 | Ethovision data Mean (Mouse [2]; [16]): 641.76 | Ethovision data Mean (Mouse [2]; [17]): 519.27 | Ethovision data Mean (Mouse [2]; [18]): 353.03 | Ethovision data Mean (Mouse [2]; [19]): 517.51 | Ethovision data Mean (Mouse [2]; [20]): 430.23 | Ethovision data Mean (Mouse [2]; [21]): 271.26 | Ethovision data Mean (Mouse [2]; [22]): 1630.42 | Ethovision data Mean (Mouse [2]; [23]): 1337.33 | Ethovision data Mean (Mouse [2]; [24]): 719.96 | Ethovision data Mean (Mouse [2]; [25]): 519.96 | Ethovision data Mean (Mouse [2]; [26]): 444.11 | Ethovision data Mean (Mouse [2]; [27]): 208.90 | Ethovision data Mean (Mouse [2]; [28]): 551.06 | Ethovision data Mean (Mouse [2]; [29]): 430.12 | Ethovision data Mean (Mouse [2]; [30]): 213.04 | Mean head twitch responses (male C57BL/6J mice; 0-5 mins, Psilocybin 0.3 mg/kg sc 2 hr post Diazepam 1.25 mg/kg ip bid 14 days or Saline ip bid): 0.76 | Mean head twitch responses (male C57BL/6J mice; 0-5 mins, Psilocybin 0.3 mg/kg sc 24 hr post Diazepam 1.25 mg/kg ip bid 14 days or Saline ip bid): 1.81 | Mean head twitch responses (male C57BL/6J mice; 0-15 mins, Psilocybin 0.3 mg/kg sc 2 hr post Diazepam 1.25 mg/kg ip bid 14 days or Saline ip bid): 2.93 | Mean head twitch responses (male C57BL/6J mice; 0-15 mins, Psilocybin 0.3 mg/kg sc 24 hr post Diazepam 1.25 mg/kg ip bid 14 days or Saline ip bid): 5.65 | Mean head twitch responses (male C57BL/6J mice; 0-30 mins, Psilocybin 0.3 mg/kg sc 2 hr post Diazepam 1.25 mg/kg ip bid 14 days or Saline ip bid): 5.78 | Mean head twitch responses (male C57BL/6J mice; 0-30 mins, Psilocybin 0.3 mg/kg sc 24 hr post Diazepam 1.25 mg/kg ip bid 14 days or Saline ip bid): 9.70 | Mean head twitch responses (male C57BL/6J mice; 5-10 mins, Psilocybin 0.3 mg/kg sc 2 hr post Diazepam 1.25 mg/kg ip bid 14 days or Saline ip bid): 0.81 | Mean head twitch responses (male C57BL/6J mice; 5-10 mins, Psilocybin 0.3 mg/kg sc 24 hr post Diazepam 1.25 mg/kg ip bid 14 days or Saline ip bid): 2.25 | Mean head twitch responses (male C57BL/6J mice; 10-15 mins, Psilocybin 0.3 mg/kg sc 2 hr post Diazepam 1.25 mg/kg ip bid 14 days or Saline ip bid): 0.81 | Mean head twitch responses (male C57BL/6J mice; 10-15 mins, Psilocybin 0.3 mg/kg sc 24 hr post Diazepam 1.25 mg/kg ip bid 14 days or Saline ip bid): 1.04 | Mean head twitch responses (male C57BL/6J mice; 15-20 mins, Psilocybin 0.3 mg/kg sc 2 hr post Diazepam 1.25 mg/kg ip bid 14 days or Saline ip bid): 0.60 | Mean head twitch responses (male C57BL/6J mice; 15-20 mins, Psilocybin 0.3 mg/kg sc 24 hr post Diazepam 1.25 mg/kg ip bid 14 days or Saline ip bid): 1.70 | Mean head twitch responses (male C57BL/6J mice; 15-30 mins, Psilocybin 0.3 mg/kg sc 2 hr post Diazepam 1.25 mg/kg ip bid 14 days or Saline ip bid): 2.35 | Mean head twitch responses (male C57BL/6J mice; 15-30 mins, Psilocybin 0.3 mg/kg sc 24 hr post Diazepam 1.25 mg/kg ip bid 14 days or Saline ip bid): 3.60 | Mean head twitch responses (male C57BL/6J mice; 20-25 mins, Psilocybin 0.3 mg/kg sc 2 hr post Diazepam 1.25 mg/kg ip bid 14 days or Saline ip bid): 0.32 | Mean head twitch responses (male C57BL/6J mice; 20-25 mins, Psilocybin 0.3 mg/kg sc 24 hr post Diazepam 1.25 mg/kg ip bid 14 days or Saline ip bid): 0.43 | Mean head twitch responses (male C57BL/6J mice; 25-30 mins, Psilocybin 0.3 mg/kg sc 2 hr post Diazepam 1.25 mg/kg ip bid 14 days or Saline ip bid): 0.80 | Mean head twitch responses (male C57BL/6J mice; 25-30 mins, Psilocybin 0.3 mg/kg sc 24 hr post Diazepam 1.25 mg/kg ip bid 14 days or Saline ip bid): 1.16 | solubility [3]: ~15 mg/mL (≈ 52.8 mM)
